Counter-ions that a name gives are not always drawn.
Assays:
Type in all cases: in vitro ADME
CYP2C19 [1] = molecular target: T1, CYP2C19 (Homo sapiens, UniProt P33261); experiment: Metabolism-dependent CYP inhibition
CYP3A4 = CYP3A4 (Homo sapiens, UniProt P08684); experiment: Metabolism-dependent CYP inhibition
P-gp [2] = molecular target: T2, P-gp (Homo sapiens, UniProt P08183); experiment: Transporter substrate assessment
P-gp [3] = molecular target: T2, P-gp; experiment: Transporter inhibition
[4] = molecular target: T3, breast cancer resistance protein (BCRP) (Homo sapiens, UniProt Q9UNQ0); experiment: Transporter substrate assessment
T3 sequence (Q9UNQ0 1-655): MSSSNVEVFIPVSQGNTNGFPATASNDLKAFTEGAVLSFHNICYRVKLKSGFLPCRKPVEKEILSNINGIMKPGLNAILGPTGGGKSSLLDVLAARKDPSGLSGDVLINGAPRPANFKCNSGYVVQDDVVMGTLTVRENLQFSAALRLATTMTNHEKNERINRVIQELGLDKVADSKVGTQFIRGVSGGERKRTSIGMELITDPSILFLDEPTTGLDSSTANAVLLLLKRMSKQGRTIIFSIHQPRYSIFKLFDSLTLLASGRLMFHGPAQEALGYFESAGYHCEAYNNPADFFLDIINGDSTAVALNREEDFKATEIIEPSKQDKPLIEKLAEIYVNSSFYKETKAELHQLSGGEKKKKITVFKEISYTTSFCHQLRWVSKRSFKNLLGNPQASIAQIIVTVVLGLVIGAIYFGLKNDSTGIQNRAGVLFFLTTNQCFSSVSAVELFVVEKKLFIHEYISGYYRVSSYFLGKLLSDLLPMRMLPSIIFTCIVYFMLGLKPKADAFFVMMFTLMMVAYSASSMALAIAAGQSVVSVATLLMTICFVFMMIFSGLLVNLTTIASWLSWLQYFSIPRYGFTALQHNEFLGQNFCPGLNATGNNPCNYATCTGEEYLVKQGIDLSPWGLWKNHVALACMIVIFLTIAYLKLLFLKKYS

[5] = molecular target: T3, breast cancer resistance protein (BCRP); experiment: Transporter inhibition
human CYP2B6 = experiment: CYP induction
human CYP3A4 = experiment: CYP induction
CYP2C8 = CYP2C8 (Homo sapiens, UniProt P10632); experiment: CYP enzyme inhibition
CYP2C9 = CYP2C9 (Homo sapiens, UniProt P11712); experiment: CYP enzyme inhibition
CYP2C19 [6] = molecular target: T1, CYP2C19; experiment: CYP enzyme inhibition
CYP2D6 = CYP2D6 (Homo sapiens, UniProt P10635); experiment: CYP enzyme inhibition
CYP3A4/5 = experiment: CYP enzyme inhibition (testosterone 6β-hydroxylation)
[7] = molecular target: bile salts export pump (BSEP) (Homo sapiens, UniProt O95342); experiment: Transporter inhibition
[8] = molecular target: organic anion transporting polypeptide (OATP)1B1 (Homo sapiens, UniProt Q9Y6L6); experiment: Transporter inhibition
[9] = molecular target: organic anion transporter (OAT)3 (Homo sapiens, UniProt Q8TCC7); experiment: Transporter inhibition
[10] = molecular target: organic cation transporter (OCT)2 (Homo sapiens, UniProt O15244); experiment: Transporter inhibition
[11] = molecular target: uridine-5′-diphospho-glucuronosyltransferase (UGT) 1A3 (Homo sapiens, UniProt P35503); experiment: UGT inhibition
[12] = molecular target: uridine-5′-diphospho-glucuronosyltransferase (UGT) 1A4 (Homo sapiens, UniProt P22310); experiment: UGT inhibition
[13] = molecular target: uridine-5′-diphospho-glucuronosyltransferase (UGT) 1A9 (Homo sapiens, UniProt O60656); experiment: UGT inhibition
[14] = molecular target: multidrug resistance-associated protein (MRP)2 (Homo sapiens, UniProt Q92887); experiment: Transporter inhibition
MRP3 = MRP3 (Homo sapiens, UniProt O15438); experiment: Transporter inhibition
OATP1B3 = OATP1B3 (Homo sapiens, UniProt Q9NPD5); experiment: Transporter inhibition
OAT1 = OAT1 (Homo sapiens, UniProt Q4U2R8); experiment: Transporter inhibition
OAT1, sequence (Q4U2R8 whole entry): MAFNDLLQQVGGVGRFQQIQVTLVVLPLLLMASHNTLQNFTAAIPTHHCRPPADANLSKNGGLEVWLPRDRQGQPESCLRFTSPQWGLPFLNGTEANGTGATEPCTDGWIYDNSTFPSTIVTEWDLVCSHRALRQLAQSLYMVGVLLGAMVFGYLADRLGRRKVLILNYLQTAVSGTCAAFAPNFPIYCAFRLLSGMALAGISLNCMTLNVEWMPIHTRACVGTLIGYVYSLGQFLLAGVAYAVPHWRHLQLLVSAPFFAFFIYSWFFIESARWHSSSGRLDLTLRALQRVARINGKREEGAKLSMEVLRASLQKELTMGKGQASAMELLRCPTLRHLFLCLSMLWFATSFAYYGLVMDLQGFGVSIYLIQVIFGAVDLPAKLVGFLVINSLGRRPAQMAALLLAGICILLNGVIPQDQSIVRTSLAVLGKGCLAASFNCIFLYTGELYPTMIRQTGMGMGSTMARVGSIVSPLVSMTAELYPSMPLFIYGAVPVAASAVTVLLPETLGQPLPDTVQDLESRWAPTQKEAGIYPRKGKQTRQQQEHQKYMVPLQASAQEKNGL

T2 sequence (P08183 whole entry): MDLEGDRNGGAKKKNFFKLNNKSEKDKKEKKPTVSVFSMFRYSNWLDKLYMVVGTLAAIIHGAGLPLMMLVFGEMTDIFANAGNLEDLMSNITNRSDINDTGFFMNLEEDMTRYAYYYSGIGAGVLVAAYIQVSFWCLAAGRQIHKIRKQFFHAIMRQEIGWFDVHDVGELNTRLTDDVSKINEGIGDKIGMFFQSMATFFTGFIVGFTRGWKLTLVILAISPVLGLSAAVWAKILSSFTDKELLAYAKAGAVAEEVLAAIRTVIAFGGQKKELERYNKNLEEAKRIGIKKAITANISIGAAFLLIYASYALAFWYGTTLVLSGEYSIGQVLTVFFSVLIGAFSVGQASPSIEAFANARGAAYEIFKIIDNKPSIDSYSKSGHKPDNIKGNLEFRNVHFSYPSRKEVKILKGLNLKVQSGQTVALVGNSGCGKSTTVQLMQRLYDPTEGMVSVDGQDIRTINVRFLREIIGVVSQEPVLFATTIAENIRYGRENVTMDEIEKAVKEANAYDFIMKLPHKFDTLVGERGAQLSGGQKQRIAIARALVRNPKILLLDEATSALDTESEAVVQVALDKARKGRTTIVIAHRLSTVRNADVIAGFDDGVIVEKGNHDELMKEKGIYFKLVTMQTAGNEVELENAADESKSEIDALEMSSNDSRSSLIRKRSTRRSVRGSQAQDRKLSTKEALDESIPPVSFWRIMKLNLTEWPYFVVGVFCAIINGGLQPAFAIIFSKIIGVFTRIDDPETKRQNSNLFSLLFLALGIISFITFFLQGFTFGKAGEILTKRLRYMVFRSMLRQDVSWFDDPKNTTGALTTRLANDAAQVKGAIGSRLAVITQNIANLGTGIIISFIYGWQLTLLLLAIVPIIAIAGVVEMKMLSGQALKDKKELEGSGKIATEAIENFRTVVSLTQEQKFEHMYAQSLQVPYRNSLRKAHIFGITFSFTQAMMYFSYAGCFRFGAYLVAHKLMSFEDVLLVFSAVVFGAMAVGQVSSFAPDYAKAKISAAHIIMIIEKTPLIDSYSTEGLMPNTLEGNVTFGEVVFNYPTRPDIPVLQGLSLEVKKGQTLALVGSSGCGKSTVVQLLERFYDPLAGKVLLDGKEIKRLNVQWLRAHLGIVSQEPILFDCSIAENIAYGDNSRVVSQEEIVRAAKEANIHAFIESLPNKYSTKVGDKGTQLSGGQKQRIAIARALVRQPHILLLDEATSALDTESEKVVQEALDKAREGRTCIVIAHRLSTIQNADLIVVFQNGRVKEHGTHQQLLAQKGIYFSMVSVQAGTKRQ
T1 sequence (P33261 whole entry): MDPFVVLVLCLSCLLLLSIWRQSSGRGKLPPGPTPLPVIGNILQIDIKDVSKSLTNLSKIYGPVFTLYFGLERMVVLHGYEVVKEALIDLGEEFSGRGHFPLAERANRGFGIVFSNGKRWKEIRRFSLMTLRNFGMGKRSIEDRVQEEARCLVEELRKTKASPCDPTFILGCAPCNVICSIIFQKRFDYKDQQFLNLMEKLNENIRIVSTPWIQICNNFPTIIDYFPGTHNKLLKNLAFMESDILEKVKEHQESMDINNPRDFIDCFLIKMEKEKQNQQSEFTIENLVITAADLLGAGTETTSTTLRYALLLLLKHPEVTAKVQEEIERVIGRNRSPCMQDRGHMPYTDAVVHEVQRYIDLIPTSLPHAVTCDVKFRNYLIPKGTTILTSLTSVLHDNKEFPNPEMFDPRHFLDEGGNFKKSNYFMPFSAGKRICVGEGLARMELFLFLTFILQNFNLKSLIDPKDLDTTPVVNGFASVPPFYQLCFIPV
CYP2D6, sequence (P10635 whole entry): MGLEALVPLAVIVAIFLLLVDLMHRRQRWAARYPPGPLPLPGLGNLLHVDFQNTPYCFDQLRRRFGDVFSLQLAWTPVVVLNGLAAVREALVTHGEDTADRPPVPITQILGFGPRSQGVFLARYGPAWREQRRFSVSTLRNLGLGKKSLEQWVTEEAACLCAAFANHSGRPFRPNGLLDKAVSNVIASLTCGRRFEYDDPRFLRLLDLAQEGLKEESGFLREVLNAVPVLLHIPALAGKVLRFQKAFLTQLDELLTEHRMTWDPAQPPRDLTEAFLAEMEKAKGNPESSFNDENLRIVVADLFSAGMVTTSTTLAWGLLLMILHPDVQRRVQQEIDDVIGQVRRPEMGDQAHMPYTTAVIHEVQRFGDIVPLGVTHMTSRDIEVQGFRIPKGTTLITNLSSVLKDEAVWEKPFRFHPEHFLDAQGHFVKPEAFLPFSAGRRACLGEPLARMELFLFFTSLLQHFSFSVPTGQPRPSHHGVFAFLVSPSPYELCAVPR
OATP1B3, sequence (Q9NPD5 whole entry): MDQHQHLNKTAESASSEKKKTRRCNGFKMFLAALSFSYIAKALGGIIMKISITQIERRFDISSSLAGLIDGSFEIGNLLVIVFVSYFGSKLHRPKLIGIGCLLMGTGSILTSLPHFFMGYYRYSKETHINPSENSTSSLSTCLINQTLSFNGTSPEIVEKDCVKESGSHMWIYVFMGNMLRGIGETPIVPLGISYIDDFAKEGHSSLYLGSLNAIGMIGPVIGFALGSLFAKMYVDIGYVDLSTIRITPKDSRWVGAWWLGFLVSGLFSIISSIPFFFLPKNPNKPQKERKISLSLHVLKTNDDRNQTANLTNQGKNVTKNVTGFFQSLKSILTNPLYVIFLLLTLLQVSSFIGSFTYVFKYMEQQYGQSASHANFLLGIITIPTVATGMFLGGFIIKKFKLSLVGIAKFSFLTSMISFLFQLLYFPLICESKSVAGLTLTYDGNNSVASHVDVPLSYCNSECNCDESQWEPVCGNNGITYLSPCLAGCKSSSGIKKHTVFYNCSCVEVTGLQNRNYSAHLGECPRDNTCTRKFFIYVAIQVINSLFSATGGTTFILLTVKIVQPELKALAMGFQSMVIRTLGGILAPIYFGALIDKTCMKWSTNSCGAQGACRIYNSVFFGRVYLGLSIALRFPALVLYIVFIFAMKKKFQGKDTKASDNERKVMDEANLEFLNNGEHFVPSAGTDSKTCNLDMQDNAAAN
multidrug resistance-associated protein (MRP)2, sequence (Q92887 whole entry): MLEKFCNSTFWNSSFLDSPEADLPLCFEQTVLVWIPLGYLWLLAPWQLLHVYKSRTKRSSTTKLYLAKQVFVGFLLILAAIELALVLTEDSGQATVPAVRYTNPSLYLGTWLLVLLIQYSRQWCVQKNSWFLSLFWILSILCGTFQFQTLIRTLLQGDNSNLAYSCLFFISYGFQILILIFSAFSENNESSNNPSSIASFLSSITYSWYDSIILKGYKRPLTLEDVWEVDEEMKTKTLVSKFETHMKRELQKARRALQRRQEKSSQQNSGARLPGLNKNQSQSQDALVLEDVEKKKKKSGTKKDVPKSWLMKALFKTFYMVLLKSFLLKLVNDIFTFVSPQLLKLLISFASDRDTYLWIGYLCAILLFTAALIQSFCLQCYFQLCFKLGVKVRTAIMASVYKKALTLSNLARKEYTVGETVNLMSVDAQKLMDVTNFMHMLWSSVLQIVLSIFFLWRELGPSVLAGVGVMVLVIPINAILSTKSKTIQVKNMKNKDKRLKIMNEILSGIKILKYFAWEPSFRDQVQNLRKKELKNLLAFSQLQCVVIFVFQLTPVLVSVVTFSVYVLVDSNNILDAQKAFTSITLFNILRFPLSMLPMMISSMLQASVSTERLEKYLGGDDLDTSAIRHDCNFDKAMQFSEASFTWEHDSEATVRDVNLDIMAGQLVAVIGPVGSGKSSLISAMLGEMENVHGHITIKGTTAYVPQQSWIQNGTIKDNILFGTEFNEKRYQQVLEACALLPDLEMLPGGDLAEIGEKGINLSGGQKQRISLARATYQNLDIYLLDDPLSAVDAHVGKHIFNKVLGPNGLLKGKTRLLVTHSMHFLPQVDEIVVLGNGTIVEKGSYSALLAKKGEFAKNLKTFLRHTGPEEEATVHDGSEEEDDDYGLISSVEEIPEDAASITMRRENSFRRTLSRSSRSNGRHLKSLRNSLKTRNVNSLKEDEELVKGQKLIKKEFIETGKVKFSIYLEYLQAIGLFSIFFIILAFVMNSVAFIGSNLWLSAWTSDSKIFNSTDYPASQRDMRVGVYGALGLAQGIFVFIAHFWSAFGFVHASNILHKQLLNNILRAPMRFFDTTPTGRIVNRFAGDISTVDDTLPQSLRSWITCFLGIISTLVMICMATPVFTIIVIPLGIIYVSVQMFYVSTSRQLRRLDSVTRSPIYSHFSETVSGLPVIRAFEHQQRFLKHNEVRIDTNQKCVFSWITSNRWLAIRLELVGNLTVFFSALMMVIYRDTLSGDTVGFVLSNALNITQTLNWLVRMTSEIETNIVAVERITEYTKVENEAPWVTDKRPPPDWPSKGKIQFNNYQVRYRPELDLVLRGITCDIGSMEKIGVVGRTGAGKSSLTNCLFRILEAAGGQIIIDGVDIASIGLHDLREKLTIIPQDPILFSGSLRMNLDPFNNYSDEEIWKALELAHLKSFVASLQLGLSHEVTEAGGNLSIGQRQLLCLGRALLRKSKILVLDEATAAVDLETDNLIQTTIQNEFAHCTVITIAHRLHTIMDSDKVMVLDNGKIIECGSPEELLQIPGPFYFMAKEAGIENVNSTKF

## O=C(c1ccc(NS(=O)(=O)c2cccc3cccnc23)cc1)N1CCN(CC2CC2)CC1 [Mitapivat sulfate]
CYP2C19 [1]
  Metabolism-dependent inhibition of CYP2C19 (evidence found), reversibility: largely reversible
CYP3A4
  Metabolism-dependent inhibition of CYP3A4 (evidence found), reversibility: largely irreversible
P-gp [2]
  Substrate for P-gp: substrate
P-gp [3]
  Inhibitor for P-gp: inhibitor
[4]
  Substrate for BCRP: not for breast cancer resistance protein (BCRP)
[5]
  Inhibitor for BCRP: not for breast cancer resistance protein (BCRP)
Human CYP2B6
  Induction of human CYP2B6: potential inducer
Human CYP3A4
  Induction of human CYP3A4: potential inducer
CYP2C8
  Inhibition of CYP2C8: mild inhibitor
CYP2C9
  Inhibition of CYP2C9: mild inhibitor
CYP2C19 [6]
  Inhibition of CYP2C19: mild inhibitor
CYP2D6
  Inhibition of CYP2D6: mild inhibitor
CYP3A4/5
  Inhibition of CYP3A4/5: mild inhibitor
[7]
  Inhibition of BSEP: mild inhibitor
[8]
  Inhibition of OATP1B1: mild inhibitor
[9]
  Inhibition of OAT3: mild inhibitor
[10]
  Inhibition of OCT2: mild inhibitor
[11]
  Inhibition of UGT1A3: mild inhibitor
[12]
  Inhibition of UGT1A4: mild inhibitor
[13]
  Inhibition of UGT1A9: mild inhibitor
[14]
  Inhibition of MRP2: does not appear to be an inhibitor
MRP3
  Inhibition of MRP3: does not appear to be an inhibitor
OATP1B3
  Inhibition of OATP1B3: does not appear to be an inhibitor
OAT1
  Inhibition of OAT1: does not appear to be an inhibitor
